Data as given in PubChem BioAssay AID1963424 (Molecular Pharmacology Branch, DTP, NCI, 2024).
“And” between values parts separate entries of the source, which are not always exact repeats. Equal values may be shown once.

Test system: 327498-153-R-J2-PDC complex spheroid growth, % test/control
Test: Anticancer human tumor 327498-153-R-J2-PDC patient-derived uterine carcinosarcoma cell line growth inhibition [Asc]
Details: for viability, T/C: stronger effect = lower value
Method: Multicellular complex tumor spheroid response to apoptosis pathway targeting inhibitors Alrizomadlin, Pelcitoclax, and Dasminapant in combination with a variety of drugs and investigational agents in selected tumor cell lines
The MDM2 inhibitor alrizomadlin, the Bcl-2/Bcl-xL inhibitor pelcitoclax, and the IAPs inhibitor dasminapant were evaluated both individually and in combination with standard of care and investigational anticancer small molecules within a complex spheroid model of solid tumors. . Complex spheroids include a stromal component modeled by human endothelial cells (HUVEC) and fibroblasts modeled by human mesenchymal stem cells (MSCs). The concentration ranges selected for each drug and investigational agent were based upon clinically achievable concentrations if the clinical Cmax of the agent was known.
Compounds. The drugs and investigational agents: alrizomadlin (APG-115; NSC831270), pelcitoclax (APG-1252; NSC835773), dasminapant (APG-1387;NSC834197), TAK-243 (NSC785004), copanlisib (NSC809693), olaparib (NSC753686), talazoparib (NSC767125), cobimetinib (NSC 768068), eltanexor (KPT-8602, NSC 794443), abemaciclib (NSC 768073), sotorasib (NSC818433), adagrasib (NSC 831453), MRTX-1133 (NSC 836407), Iadademestat (ORY1001, NSC 806812), and RMC-4630 (NSC839698), were obtained from the NCI Developmental Therapeutics Program Chemical Repository. The FDA-approved anticancer drug set is available from the Developmental Therapeutics Program at https://dtp.cancer.gov/organization/dscb/obtaining/available plates.htm. […] The stock solutions were prepared in dimethyl sulfoxide (DMSO, Sigma-Aldrich, St. Louis, MO, cat. D2650) at 800-fold the tested concentration and stored at -70 degrees C prior to their use. All drugs and investigational agents were tested over a range starting from a high concentration at or near the clinical Cmax and decreasing in half-log increments. If the clinical Cmax for an agent had not been determined, the highest concentration tested was 10 microM.
The patient-derived cancer (PDC) cell lines include five colon adenocarcinomas: 186277-243-T-J2-PDC, 616215-338-R-J1-PDC, 439559-082-T-J2-PDC, 463943-066-T-J2-PDC, and 519858-162-T-J1-PDC; three pancreatic carcinomas: 323965-272-R-J2-PDC, 521955-158-R6-J3-PDC, and 521955-158-R2-J5-PDC; two uterine sarcomas: 327498-152-R-J2-PDC and 993429-296-R-J1-PDC; two rhabdomyosarcomas: 755483-174-R-J1-PDC and 772245-204-R-J1-PDC; two soft tissue sarcomas: 126254-015-R-J1-PDC and 494315-158-R-J1-PDC; two malignant fibrous histiocytomas: 317291-083-R-J1-PDC and 596521-263-R-J1-PDC; two breast carcinomas: 171881-019-R-J1-PDC and 885512-296-R-J2-PDC; and one ovarian carcinoma: 6556581-035-R-J-PDC were obtained from the NCI PDMR, (https://pdmr.cancer.gov). The established cell lines HSSY-2 synovial sarcoma (RRID:CVCL 8719), SYO-1 synovial sarcoma (RRID:CVCL_7146), MPNST malignant peripheral neural sheath tumor were obtained from the Sloan Kettering Institute. The following established cell lines were purchased from the American Type Culture Collection (ATCC, Manassas, VA), Sor the received from the NCI repository:, PANC-1 pancreatic carcinoma (CRL-1469, RRID:CVCL_0480), OVCAR-5 ovarian carcinoma (RRID:CVCL_1628), OVCAR-8 ovarian carcinoma (RRID:CVCL_1629), , MCF-7 breast carcinoma (CRL-12584, RRID:CVCL_0031), MDA-MB-231 breast carcinoma (CRL-12532, RRID:CVCL_0062), NCI-H1876 small cell lung carcinoma (CRL-5902, RRID:CVCL_1503), NCI-H510A small cell lung carcinoma (HTB-184, RRID:CVCL_1565), NCI-H1417 (CRL-5869, RRID:CVCL_1469), and NCI-H196 small cell lung carcinoma (CRL-5823, RRID:CVCL_1509). Dr. Peter Houghton (Greehey Children's Cancer Research Institute, University of Texas Health Science Center, San Antonio, TX) provided Rh-18 rhabdomyosarcoma (RRID:CVCL_1659). Pooled donor human umbilical vein endothelial cells (HUVEC, Lonza, cat. CC-2519) and human mesenchymal stem cells (hMSC, Lonza, cat. PT-2501) were purchased from Lonza (Walkersville, MD).
Cell Culture. […]
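Note: spheroids exposed to compound for 7 days after 3 days of growth.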
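Throughout, for viability, T/C: 100% = DMSO vehicle control wells.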

For `CCN1C(C(=O)NC23CCC(C(=O)O)(CC2)CC3)C(c2cccc(Cl)c2F)C2(C(=O)Nc3cc(Cl)ccc32)C12CCCCC2` (stereo not drawn), the viability, T/C (compound 0.00949 µM) was 90.4% and 97.6%, the viability, T/C (compound 0.03 µM) was 88.7% [middle of 15 runs] and the viability, T/C (compound 0.0949 µM) was 74.7% [middle of 15 runs]. For the same compound, the viability, T/C (compound 0.3 µM) was 40.5% [middle of 15 runs], the viability, T/C (compound 0.949 µM) was 11.1% [middle of 15 runs] and the viability, T/C (compound 3 µM) was 4% [middle of 15 runs]. For the same compound, the IC50 (compound alone, run of 09/27/2022) was 211 nM [middle of 13 runs] and the IC50 (curve of compound) was 174 nM and 252 nM.
For `O=C(c1ccc(F)c(F)c1Nc1ccc(I)cc1F)N1CC(O)([C@@H]2CCCCN2)C1` + CCN1C(C(=O)NC23CCC(C(=O)O)(CC2)CC3)C(c2cccc(Cl)c2F)C2(C(=O)Nc3cc(Cl)ccc32)C12CCCCC2, the IC50 (curve of first compound, second compound 0.03 µM) was 227 nM, the IC50 (curve of first compound, second compound 0.0949 µM) was 47.8 nM and the IC50 (curve of first compound, second compound 0.3 µM) was < 3.16 nM. For the same compound, the IC50 (curve of first compound, second compound 0.949 µM) was < 3.16 nM, the IC50 (curve of first compound, second compound 3 µM) was < 3.16 nM and the viability, T/C (second compound 0.03 µM, first compound 0.00316 µM) was 98.2%. For the same compound, the viability, T/C (second compound 0.03 µM, first compound 0.01 µM) was 85%, the viability, T/C (second compound 0.03 µM, first compound 0.0316 µM) was 70.5% and the viability, T/C (second compound 0.03 µM, first compound 0.1 µM) was 64.5%. The viability, T/C (second compound 0.03 µM, first compound 0.316 µM) was 50.3%, the viability, T/C (second compound 0.03 µM, first compound 1 µM) was 16% and the viability, T/C (second compound 0.0949 µM, first compound 0.00316 µM) was 67%. For the same compound, the viability, T/C (second compound 0.0949 µM, first compound 0.01 µM) was 61.4%, the viability, T/C (second compound 0.0949 µM, first compound 0.0316 µM) was 55.3% and the viability, T/C (second compound 0.0949 µM, first compound 0.1 µM) was 41.3%. The viability, T/C (second compound 0.0949 µM, first compound 0.316 µM) was 28.4%, the viability, T/C (second compound 0.0949 µM, first compound 1 µM) was 8.51% and the viability, T/C (second compound 0.3 µM, first compound 0.00316 µM) was 37.2%. For the same compound, the viability, T/C (second compound 0.3 µM, first compound 0.01 µM) was 29.1%, the viability, T/C (second compound 0.3 µM, first compound 0.0316 µM) was 17.3% and the viability, T/C (second compound 0.3 µM, first compound 0.1 µM) was 15.7%. The viability, T/C (second compound 0.3 µM, first compound 0.316 µM) was 11.1%, the viability, T/C (second compound 0.3 µM, first compound 1 µM) was 3.71% and the viability, T/C (second compound 0.949 µM, first compound 0.00316 µM) was 8.99%. It also gave a viability, T/C (second compound 0.949 µM, first compound 0.01 µM) of 6.26%, a viability, T/C (second compound 0.949 µM, first compound 0.0316 µM) of 4.91% and a viability, T/C (second compound 0.949 µM, first compound 0.1 µM) of 4.3%. The viability, T/C (second compound 0.949 µM, first compound 0.316 µM) was 2.73%, the viability, T/C (second compound 0.949 µM, first compound 1 µM) was 1.43% and the viability, T/C (second compound 3 µM, first compound 0.00316 µM) was 3.41%. The viability, T/C (second compound 3 µM, first compound 0.01 µM) was 1.87%, the viability, T/C (second compound 3 µM, first compound 0.0316 µM) was 2.1% and the viability, T/C (second compound 3 µM, first compound 0.1 µM) was 1.08%. The viability, T/C (second compound 3 µM, first compound 0.316 µM) was 1.35% and the viability, T/C (second compound 3 µM, first compound 1 µM) was 0.86%.
`CCN1C(C(=O)NC23CCC(C(=O)O)(CC2)CC3)C(c2cccc(Cl)c2F)C2(C(=O)Nc3cc(Cl)ccc32)C12CCCCC2` (stereo not drawn) + Cc1c(S(C)(=O)=O)c(-c2cc(F)cc(N3CCN(c4ccc(NS(=O)(=O)c5ccc(NC(CCN6CCC(C(=O)OCCCP(=O)(O)O)CC6)CSc6ccccc6)c(S(=O)(=O)C(F)(F)F)c5)cc4)CC3)c2)c(-c2ccc(Cl)cc2)n1C(C)C gave an IC50 (curve of first compound, second compound 0.1 µM) of 147 nM, an IC50 (curve of first compound, second compound 0.316 µM) of 136 nM and an IC50 (curve of first compound, second compound 1 µM) of 106 nM. For the same compound, the IC50 (curve of first compound, second compound 3.16 µM) was 122 nM, the IC50 (curve of first compound, second compound 10 µM) was 172 nM and the viability, T/C (second compound 0.1 µM, first compound 0.00949 µM) was 92.5%. For the same compound, the viability, T/C (second compound 0.1 µM, first compound 0.03 µM) was 84.5%, the viability, T/C (second compound 0.1 µM, first compound 0.0949 µM) was 64.8% and the viability, T/C (second compound 0.1 µM, first compound 0.3 µM) was 26.6%. It also gave a viability, T/C (second compound 0.1 µM, first compound 0.949 µM) of 6.43%, a viability, T/C (second compound 0.1 µM, first compound 3 µM) of 2% and a viability, T/C (second compound 0.316 µM, first compound 0.00949 µM) of 87.4%. The viability, T/C (second compound 0.316 µM, first compound 0.03 µM) was 89%, the viability, T/C (second compound 0.316 µM, first compound 0.0949 µM) was 64.4% and the viability, T/C (second compound 0.316 µM, first compound 0.3 µM) was 17%. The viability, T/C (second compound 0.316 µM, first compound 0.949 µM) was 8.41%, the viability, T/C (second compound 0.316 µM, first compound 3 µM) was 2.1% and the viability, T/C (second compound 1 µM, first compound 0.00949 µM) was 91.4%. The viability, T/C (second compound 1 µM, first compound 0.03 µM) was 94.5%, the viability, T/C (second compound 1 µM, first compound 0.0949 µM) was 50.6% and the viability, T/C (second compound 1 µM, first compound 0.3 µM) was 17.8%. For the same compound, the viability, T/C (second compound 1 µM, first compound 0.949 µM) was 4.84%, the viability, T/C (second compound 1 µM, first compound 3 µM) was 1.36% and the viability, T/C (second compound 3.16 µM, first compound 0.00949 µM) was 78.9%. For the same compound, the viability, T/C (second compound 3.16 µM, first compound 0.03 µM) was 79%, the viability, T/C (second compound 3.16 µM, first compound 0.0949 µM) was 56.1% and the viability, T/C (second compound 3.16 µM, first compound 0.3 µM) was 23.8%. For the same compound, the viability, T/C (second compound 3.16 µM, first compound 0.949 µM) was 6.76%, the viability, T/C (second compound 3.16 µM, first compound 3 µM) was 1.6% and the viability, T/C (second compound 10 µM, first compound 0.00949 µM) was 166%. It also gave a viability, T/C (second compound 10 µM, first compound 0.03 µM) of 162%, a viability, T/C (second compound 10 µM, first compound 0.0949 µM) of 80.9% and a viability, T/C (second compound 10 µM, first compound 0.3 µM) of 23.5%. The viability, T/C (second compound 10 µM, first compound 0.949 µM) was 9.14% and the viability, T/C (second compound 10 µM, first compound 3 µM) was 1.51%.
